Legend:
Conditions in all cases: Compound concentration 10 µM
[1] = target: Kappa-type opioid receptor (Homo sapiens) (UniProt P41145)
Description: PDSP Primary Binding target: OPRK1 - Compounds are tested at 10 uM concentration, plate are incubated at room temperature in the dark for 90 minutes. Reaction are stopped by vacuum filtration onto 0.3% polyethyleneimine soaked filter mats using Filtermate harvester. Scintilation cocktail is then melted onto microwave-dried filters on a hot plate and the radio activity is counted in Microbia counter.

[2] = target: 5-hydroxytryptamine receptor 1B (Homo sapiens) (UniProt P28222)
Description: PDSP Primary Binding target: HTR1B - Compounds are tested at 10 uM concentration, plate are incubated at room temperature in the dark for 90 minutes. Reaction are stopped by vacuum filtration onto 0.3% polyethyleneimine soaked filter mats using Filtermate harvester. Scintilation cocktail is then melted onto microwave-dried filters on a hot plate and the radio activity is counted in Microbia counter.

[3] = target: Sodium-dependent dopamine transporter (Homo sapiens) (UniProt Q01959)
Description: PDSP Primary Binding target: SLC6A3 - Compounds are tested at 10 uM concentration, plate are incubated at room temperature in the dark for 90 minutes. Reaction are stopped by vacuum filtration onto 0.3% polyethyleneimine soaked filter mats using Filtermate harvester. Scintilation cocktail is then melted onto microwave-dried filters on a hot plate and the radio activity is counted in Microbia counter.

[4] = target: 5-hydroxytryptamine receptor 5A (Homo sapiens) (UniProt P47898)
Description: PDSP Primary Binding target: HTR5A - Compounds are tested at 10 uM concentration, plate are incubated at room temperature in the dark for 90 minutes. Reaction are stopped by vacuum filtration onto 0.3% polyethyleneimine soaked filter mats using Filtermate harvester. Scintilation cocktail is then melted onto microwave-dried filters on a hot plate and the radio activity is counted in Microbia counter.

[5] = target: D(2) dopamine receptor (Homo sapiens) (UniProt P14416)
Description: PDSP Primary Binding target: DRD2 - Compounds are tested at 10 uM concentration, plate are incubated at room temperature in the dark for 90 minutes. Reaction are stopped by vacuum filtration onto 0.3% polyethyleneimine soaked filter mats using Filtermate harvester. Scintilation cocktail is then melted onto microwave-dried filters on a hot plate and the radio activity is counted in Microbia counter.

[6] = target: 5-hydroxytryptamine receptor 6 (Homo sapiens) (UniProt P50406)
Sequence of 5-hydroxytryptamine receptor 6 (Homo sapiens) (P50406 whole entry): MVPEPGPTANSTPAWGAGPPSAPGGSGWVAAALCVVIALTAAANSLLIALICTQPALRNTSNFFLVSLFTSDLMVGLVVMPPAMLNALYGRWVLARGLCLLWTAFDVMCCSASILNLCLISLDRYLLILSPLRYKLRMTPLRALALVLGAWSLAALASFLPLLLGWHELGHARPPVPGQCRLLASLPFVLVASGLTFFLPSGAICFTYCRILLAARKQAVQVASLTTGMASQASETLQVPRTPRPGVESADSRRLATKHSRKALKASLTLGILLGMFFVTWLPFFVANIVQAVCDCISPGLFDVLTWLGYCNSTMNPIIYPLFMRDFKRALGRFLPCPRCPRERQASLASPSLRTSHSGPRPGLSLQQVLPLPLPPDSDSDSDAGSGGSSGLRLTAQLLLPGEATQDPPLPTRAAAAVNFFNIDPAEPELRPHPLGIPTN
Description: PDSP Primary Binding target: HTR6 - Compounds are tested at 10 uM concentration, plate are incubated at room temperature in the dark for 90 minutes. Reaction are stopped by vacuum filtration onto 0.3% polyethyleneimine soaked filter mats using Filtermate harvester. Scintilation cocktail is then melted onto microwave-dried filters on a hot plate and the radio activity is counted in Microbia counter.

[7] = target: T1, 5-hydroxytryptamine receptor 1A (Homo sapiens) (UniProt P08908)
T1 sequence (whole entry): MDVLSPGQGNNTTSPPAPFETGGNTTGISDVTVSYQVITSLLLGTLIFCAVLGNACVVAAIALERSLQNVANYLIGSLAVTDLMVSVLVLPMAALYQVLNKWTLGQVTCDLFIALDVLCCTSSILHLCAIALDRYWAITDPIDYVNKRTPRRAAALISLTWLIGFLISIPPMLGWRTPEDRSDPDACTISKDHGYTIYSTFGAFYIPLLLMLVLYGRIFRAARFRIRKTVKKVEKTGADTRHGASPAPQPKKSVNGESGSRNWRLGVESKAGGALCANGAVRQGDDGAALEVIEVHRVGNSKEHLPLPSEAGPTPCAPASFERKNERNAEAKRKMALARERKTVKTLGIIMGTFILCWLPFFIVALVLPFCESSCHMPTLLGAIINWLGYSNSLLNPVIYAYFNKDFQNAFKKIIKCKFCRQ
Description: PDSP Primary Binding target: HTR1A - Compounds are tested at 10 uM concentration, plate are incubated at room temperature in the dark for 90 minutes. Reaction are stopped by vacuum filtration onto 0.3% polyethyleneimine soaked filter mats using Filtermate harvester. Scintilation cocktail is then melted onto microwave-dried filters on a hot plate and the radio activity is counted in Microbia counter.

[8] = target: T2, Alpha-1A adrenergic receptor (Homo sapiens) (UniProt P35348)
T2 sequence (whole entry): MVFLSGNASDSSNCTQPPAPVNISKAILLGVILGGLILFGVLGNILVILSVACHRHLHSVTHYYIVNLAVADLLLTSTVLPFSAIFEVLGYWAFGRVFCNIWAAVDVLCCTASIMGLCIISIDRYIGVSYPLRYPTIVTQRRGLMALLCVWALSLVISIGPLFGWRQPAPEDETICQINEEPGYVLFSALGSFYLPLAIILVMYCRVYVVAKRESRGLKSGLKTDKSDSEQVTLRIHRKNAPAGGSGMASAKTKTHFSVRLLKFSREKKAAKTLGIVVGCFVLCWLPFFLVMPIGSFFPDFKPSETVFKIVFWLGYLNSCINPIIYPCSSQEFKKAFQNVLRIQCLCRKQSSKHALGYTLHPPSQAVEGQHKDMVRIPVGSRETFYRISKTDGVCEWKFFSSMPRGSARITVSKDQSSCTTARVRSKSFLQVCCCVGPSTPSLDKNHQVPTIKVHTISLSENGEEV
Description: PDSP Primary Binding target: ADRA1A - Compounds are tested at 10 uM concentration, plate are incubated at room temperature in the dark for 90 minutes. Reaction are stopped by vacuum filtration onto 0.3% polyethyleneimine soaked filter mats using Filtermate harvester. Scintilation cocktail is then melted onto microwave-dried filters on a hot plate and the radio activity is counted in Microbia counter.

[9] = target: D(1A) dopamine receptor (Homo sapiens) (UniProt P21728)
Sequence of D(1A) dopamine receptor (Homo sapiens) (P21728 whole entry): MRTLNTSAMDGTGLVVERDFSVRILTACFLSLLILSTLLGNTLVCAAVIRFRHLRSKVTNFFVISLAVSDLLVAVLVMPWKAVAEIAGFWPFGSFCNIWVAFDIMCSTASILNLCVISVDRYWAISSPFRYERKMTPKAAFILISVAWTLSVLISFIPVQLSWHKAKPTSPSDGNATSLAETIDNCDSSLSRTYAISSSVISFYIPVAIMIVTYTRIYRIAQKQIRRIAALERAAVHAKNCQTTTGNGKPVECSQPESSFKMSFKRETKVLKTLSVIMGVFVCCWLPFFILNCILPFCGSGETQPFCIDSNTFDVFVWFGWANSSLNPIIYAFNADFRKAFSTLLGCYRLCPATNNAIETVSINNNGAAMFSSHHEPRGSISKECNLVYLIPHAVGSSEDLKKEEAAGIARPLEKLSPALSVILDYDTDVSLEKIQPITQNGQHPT
Description: PDSP Primary Binding target: DRD1 - Compounds are tested at 10 uM concentration, plate are incubated at room temperature in the dark for 90 minutes. Reaction are stopped by vacuum filtration onto 0.3% polyethyleneimine soaked filter mats using Filtermate harvester. Scintilation cocktail is then melted onto microwave-dried filters on a hot plate and the radio activity is counted in Microbia counter.

[10] = target: Translocator protein (Homo sapiens) (UniProt P30536)
Sequence of Translocator protein (Homo sapiens) (P30536 whole entry): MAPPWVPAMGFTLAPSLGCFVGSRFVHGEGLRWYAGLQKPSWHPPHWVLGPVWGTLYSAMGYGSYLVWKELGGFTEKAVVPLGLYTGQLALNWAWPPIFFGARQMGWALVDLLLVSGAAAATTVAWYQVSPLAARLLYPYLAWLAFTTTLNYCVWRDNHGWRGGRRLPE
Description: PDSP Primary Binding target: TSPO - Compounds are tested at 10 uM concentration, plate are incubated at room temperature in the dark for 90 minutes. Reaction are stopped by vacuum filtration onto 0.3% polyethyleneimine soaked filter mats using Filtermate harvester. Scintilation cocktail is then melted onto microwave-dried filters on a hot plate and the radio activity is counted in Microbia counter.

[11] = target: T3, Muscarinic acetylcholine receptor M4 (Homo sapiens) (UniProt P08173)
T3 sequence (whole entry): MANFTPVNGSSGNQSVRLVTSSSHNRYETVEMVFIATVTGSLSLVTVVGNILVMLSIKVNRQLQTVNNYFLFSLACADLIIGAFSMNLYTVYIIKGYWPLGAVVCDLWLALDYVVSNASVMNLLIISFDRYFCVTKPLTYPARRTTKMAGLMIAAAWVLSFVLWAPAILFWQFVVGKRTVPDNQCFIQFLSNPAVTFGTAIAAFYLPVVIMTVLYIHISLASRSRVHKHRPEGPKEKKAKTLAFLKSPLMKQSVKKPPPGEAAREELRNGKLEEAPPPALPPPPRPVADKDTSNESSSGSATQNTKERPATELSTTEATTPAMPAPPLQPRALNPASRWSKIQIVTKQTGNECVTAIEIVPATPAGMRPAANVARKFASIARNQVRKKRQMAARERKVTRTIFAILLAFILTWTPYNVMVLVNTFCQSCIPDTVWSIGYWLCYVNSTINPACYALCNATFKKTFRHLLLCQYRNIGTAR
Description: PDSP Primary Binding target: CHRM4 - Compounds are tested at 10 uM concentration, plate are incubated at room temperature in the dark for 90 minutes. Reaction are stopped by vacuum filtration onto 0.3% polyethyleneimine soaked filter mats using Filtermate harvester. Scintilation cocktail is then melted onto microwave-dried filters on a hot plate and the radio activity is counted in Microbia counter.

[12] = target: T4, Alpha-2B adrenergic receptor (Homo sapiens) (UniProt P18089)
T4 sequence (whole entry): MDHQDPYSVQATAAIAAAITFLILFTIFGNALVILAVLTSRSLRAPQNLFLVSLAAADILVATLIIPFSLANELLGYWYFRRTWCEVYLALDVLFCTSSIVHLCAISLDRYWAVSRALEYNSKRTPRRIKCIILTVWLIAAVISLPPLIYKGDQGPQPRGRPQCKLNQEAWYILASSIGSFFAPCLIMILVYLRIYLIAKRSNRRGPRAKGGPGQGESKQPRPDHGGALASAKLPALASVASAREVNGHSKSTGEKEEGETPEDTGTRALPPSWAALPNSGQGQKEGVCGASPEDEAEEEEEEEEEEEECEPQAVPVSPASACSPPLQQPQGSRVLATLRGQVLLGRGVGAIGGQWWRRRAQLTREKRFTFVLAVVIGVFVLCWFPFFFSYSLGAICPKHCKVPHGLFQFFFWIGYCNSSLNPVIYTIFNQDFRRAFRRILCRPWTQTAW
Description: PDSP Primary Binding target: ADRA2B - Compounds are tested at 10 uM concentration, plate are incubated at room temperature in the dark for 90 minutes. Reaction are stopped by vacuum filtration onto 0.3% polyethyleneimine soaked filter mats using Filtermate harvester. Scintilation cocktail is then melted onto microwave-dried filters on a hot plate and the radio activity is counted in Microbia counter.

[13] = target: 5-hydroxytryptamine receptor 1E (Homo sapiens) (UniProt P28566)
Sequence of 5-hydroxytryptamine receptor 1E (Homo sapiens) (P28566 whole entry): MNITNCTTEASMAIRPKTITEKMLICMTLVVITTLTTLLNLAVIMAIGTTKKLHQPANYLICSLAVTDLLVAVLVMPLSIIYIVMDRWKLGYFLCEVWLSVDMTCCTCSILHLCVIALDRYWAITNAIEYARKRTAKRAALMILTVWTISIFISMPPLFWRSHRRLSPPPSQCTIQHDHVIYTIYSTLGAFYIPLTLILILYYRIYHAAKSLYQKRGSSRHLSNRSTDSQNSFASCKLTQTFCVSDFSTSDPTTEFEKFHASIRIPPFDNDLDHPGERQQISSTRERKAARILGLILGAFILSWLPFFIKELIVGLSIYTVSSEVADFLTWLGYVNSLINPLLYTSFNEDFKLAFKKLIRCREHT
Description: PDSP Primary Binding target: HTR1E - Compounds are tested at 10 uM concentration, plate are incubated at room temperature in the dark for 90 minutes. Reaction are stopped by vacuum filtration onto 0.3% polyethyleneimine soaked filter mats using Filtermate harvester. Scintilation cocktail is then melted onto microwave-dried filters on a hot plate and the radio activity is counted in Microbia counter.

[14] = target: Beta-2 adrenergic receptor (Homo sapiens) (UniProt P07550)
Sequence of Beta-2 adrenergic receptor (Homo sapiens) (P07550 whole entry, looked up): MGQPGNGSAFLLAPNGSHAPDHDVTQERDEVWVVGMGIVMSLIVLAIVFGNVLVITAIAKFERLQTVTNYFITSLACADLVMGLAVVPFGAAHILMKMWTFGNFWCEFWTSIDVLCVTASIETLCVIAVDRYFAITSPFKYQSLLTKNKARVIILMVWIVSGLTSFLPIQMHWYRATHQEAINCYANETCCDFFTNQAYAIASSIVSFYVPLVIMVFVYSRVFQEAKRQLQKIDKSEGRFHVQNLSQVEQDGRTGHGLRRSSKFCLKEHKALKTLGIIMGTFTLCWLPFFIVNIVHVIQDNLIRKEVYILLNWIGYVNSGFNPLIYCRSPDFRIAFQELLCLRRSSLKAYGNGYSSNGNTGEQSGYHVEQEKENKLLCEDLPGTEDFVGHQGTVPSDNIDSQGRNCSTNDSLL
Description: PDSP Primary Binding target: ADRB2 - Compounds are tested at 10 uM concentration, plate are incubated at room temperature in the dark for 90 minutes. Reaction are stopped by vacuum filtration onto 0.3% polyethyleneimine soaked filter mats using Filtermate harvester. Scintilation cocktail is then melted onto microwave-dried filters on a hot plate and the radio activity is counted in Microbia counter.

[15] = target: T5, D(4) dopamine receptor (Homo sapiens) (UniProt P21917)
T5 sequence (whole entry): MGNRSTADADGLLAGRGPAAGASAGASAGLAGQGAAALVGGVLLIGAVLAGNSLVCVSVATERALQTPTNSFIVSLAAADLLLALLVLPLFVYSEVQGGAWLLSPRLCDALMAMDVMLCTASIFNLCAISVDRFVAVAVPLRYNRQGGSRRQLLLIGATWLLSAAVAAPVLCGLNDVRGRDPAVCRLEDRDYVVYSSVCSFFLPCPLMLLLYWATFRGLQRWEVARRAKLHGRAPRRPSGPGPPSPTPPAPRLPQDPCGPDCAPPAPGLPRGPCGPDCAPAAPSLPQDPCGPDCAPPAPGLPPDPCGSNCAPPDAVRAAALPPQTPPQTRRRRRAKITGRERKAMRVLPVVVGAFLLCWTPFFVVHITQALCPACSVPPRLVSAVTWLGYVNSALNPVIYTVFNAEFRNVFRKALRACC
Description: PDSP Primary Binding target: DRD4 - Compounds are tested at 10 uM concentration, plate are incubated at room temperature in the dark for 90 minutes. Reaction are stopped by vacuum filtration onto 0.3% polyethyleneimine soaked filter mats using Filtermate harvester. Scintilation cocktail is then melted onto microwave-dried filters on a hot plate and the radio activity is counted in Microbia counter.

Sequence of D(2) dopamine receptor (Homo sapiens) (P14416 whole entry): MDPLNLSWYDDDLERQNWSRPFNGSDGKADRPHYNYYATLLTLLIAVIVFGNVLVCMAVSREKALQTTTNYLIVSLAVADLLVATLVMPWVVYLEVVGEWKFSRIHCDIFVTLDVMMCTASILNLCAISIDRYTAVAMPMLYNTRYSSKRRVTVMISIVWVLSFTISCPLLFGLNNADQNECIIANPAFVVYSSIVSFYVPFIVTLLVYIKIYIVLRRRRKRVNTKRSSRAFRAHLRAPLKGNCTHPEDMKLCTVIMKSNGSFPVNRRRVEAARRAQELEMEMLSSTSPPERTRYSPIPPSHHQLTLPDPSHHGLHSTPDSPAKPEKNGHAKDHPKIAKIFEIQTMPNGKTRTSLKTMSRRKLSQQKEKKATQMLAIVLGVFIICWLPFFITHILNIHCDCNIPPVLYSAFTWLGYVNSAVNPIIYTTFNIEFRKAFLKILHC
Sequence of Kappa-type opioid receptor (Homo sapiens) (P41145 whole entry): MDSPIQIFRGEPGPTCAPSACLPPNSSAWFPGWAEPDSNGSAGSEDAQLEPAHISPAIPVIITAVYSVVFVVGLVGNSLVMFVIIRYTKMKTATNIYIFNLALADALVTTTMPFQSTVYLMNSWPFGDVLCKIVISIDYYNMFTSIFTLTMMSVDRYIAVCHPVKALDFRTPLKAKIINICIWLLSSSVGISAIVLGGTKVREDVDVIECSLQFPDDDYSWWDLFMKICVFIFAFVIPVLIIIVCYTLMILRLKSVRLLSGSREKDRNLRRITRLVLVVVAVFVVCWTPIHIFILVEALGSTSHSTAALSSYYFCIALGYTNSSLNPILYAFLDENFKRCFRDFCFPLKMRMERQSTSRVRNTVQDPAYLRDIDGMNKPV
Sequence of 5-hydroxytryptamine receptor 1B (Homo sapiens) (P28222 whole entry): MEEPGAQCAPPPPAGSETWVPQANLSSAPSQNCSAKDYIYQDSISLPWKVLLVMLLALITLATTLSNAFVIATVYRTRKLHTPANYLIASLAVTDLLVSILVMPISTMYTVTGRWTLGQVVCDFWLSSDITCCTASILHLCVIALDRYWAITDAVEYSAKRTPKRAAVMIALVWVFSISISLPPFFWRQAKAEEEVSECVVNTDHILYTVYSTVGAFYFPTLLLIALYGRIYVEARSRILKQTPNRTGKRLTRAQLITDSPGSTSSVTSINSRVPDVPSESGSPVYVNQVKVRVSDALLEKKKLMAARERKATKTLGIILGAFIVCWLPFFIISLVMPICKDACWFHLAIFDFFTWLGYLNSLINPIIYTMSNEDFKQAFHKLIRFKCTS
Sequence of Sodium-dependent dopamine transporter (Homo sapiens) (Q01959 whole entry): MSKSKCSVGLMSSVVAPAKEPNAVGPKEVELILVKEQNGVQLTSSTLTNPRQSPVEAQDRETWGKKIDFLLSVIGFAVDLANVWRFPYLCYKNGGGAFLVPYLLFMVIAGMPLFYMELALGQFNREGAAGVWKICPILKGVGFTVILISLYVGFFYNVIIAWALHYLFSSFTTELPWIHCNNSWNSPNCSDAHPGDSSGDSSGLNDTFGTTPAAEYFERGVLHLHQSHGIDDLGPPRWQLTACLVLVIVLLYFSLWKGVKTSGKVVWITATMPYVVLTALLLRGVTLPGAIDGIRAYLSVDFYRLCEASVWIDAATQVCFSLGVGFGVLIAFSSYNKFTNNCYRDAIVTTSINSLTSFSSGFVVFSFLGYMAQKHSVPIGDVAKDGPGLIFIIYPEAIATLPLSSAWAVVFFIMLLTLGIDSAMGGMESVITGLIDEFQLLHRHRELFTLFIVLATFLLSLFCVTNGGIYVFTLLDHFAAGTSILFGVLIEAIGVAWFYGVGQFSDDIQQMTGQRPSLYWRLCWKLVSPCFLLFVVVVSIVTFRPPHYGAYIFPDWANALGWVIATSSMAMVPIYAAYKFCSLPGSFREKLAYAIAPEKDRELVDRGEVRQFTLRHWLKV
Sequence of 5-hydroxytryptamine receptor 5A (Homo sapiens) (P47898 whole entry): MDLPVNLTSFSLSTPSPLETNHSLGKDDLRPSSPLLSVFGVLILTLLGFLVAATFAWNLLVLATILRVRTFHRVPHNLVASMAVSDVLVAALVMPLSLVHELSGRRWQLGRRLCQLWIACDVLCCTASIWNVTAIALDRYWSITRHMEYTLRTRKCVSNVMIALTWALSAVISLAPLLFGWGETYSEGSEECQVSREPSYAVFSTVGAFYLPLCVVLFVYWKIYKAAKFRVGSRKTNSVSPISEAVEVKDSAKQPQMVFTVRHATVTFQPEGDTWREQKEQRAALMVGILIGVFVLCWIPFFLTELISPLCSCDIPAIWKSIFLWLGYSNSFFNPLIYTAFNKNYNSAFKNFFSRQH

Row | SMILES | inhibition [1] | inhibition [2] | inhibition [3] | inhibition [4] | inhibition [5] | inhibition [6] | inhibition [7] | inhibition [8] | inhibition [9] | inhibition [10] | inhibition [11] | inhibition [12] | inhibition [13] | inhibition [14] | inhibition [15]
1 | CC(C)NCC(O)COc1ccc(CCOCC2CC2)cc1 (stereo not drawn) | 20.5% | 10.4% | 27.9% | -3.84% | 3.26% | -5.1% | -1.07% | -7.39% | 1.75% | 4.48% | 22.5% | 24.5% | 5.21% |  | 
2 | COc1ccc(Br)cc1S(=O)(=O)NC(=O)/C=C/c1ccccc1Cc1ccc2ccccc2c1 | 1.49% | 3.55% |  |  | 29.3% | -2.73% | 9.76% | 17.8% | -4.59% | 17.7% | -8.83% | -4.1% | 1.84% | -2.54% | 33.8%
3 | CNC[C@H](O)c1cccc(O)c1 |  | 15.9% |  | 26.3% | -2.53% | 9.39% | 1.52% | 27.4% | 11.1% | 11.8% | 6.21% | 21.3% | 23.9% | -1.97% | 
4 | Cc1cc(C(=O)N2Cc3cnn(C)c3Nc3ccccc32)ccc1CNC(=O)N1CCC[C@H]1C(=S)N1CCCN(C)CC1 | 61.7% | 20.7% | 19.8% | 35% | 5.64% |  | -3.18% | -5.86% | -3.37% | -9.04% | 63% | 2.87% | 4.73% | -1.47% | 
5 | Cc1nc(C(=O)N2CCC[C@H]2Cc2nnc(-c3ccccc3)o2)c(-c2ccccc2F)s1 | 57.7% |  | 26.1% | 12.1% | 14.6% | 17.4% | 3.86% | 1.08% | 7.87% | 57.6% | 39.1% |  | -8.85% | -2.08% | -5.22%
6 | CCOC(=O)c1c(C)[nH]c2ccc3c(c12)CN1CCc2cc(OC)ccc2C1O3 (stereo not drawn) | 57.4% | 54% | 82.9% | 31% | 4.19% | 10.8% |  | 41.3% | 1.81% | 28.3% | 92.3% | 60% | -6.16% | 23.2% | -5.53%
7 | CCCCC#Cc1nc(NC)c2ncn([C@@H]3O[C@H](CO)[C@@H](O)[C@H]3O)c2n1 | 8.14% | -7.26% |  | -6.71% | -5.45% | 2.49% | 3.96% | -3.3% | 0.72% | 3.46% | 0.76% |  | 18.8% |  | -8.18%
8 | CN1CC(=O)N=C1NC(=O)Nc1cccc(Cl)c1 | 2.28% | 31.2% | 0.92% | 18.4% | -2.54% | -0.6% |  | 7.79% | 14.5% | -8.11% | -2.92% | -6.21% | 7.82% | -8.89% | 27.2%
9 | C[C@@H](N)Cc1c[nH]cn1 | -2.45% | 5.1% | 3.36% | -3.48% | -4.88% | 2.58% | -9.3% | 8.76% | 14.2% |  |  | 9.47% | 14.9% | 10.2% | 
10 | C[C@H](CO)Nc1nc(SCc2cccc(Cl)c2F)nc2[nH]c(=O)sc12 | 11% |  | 8.96% | 7.09% | -1.75% | -7.23% | 6.98% | -7.6% | -6.29% |  | -0.1% |  | -4.99% | 8.37% | 
11 | COc1cc(-n2cnc3cc(-c4ccc(Cl)cc4)sc3c2=O)ccc1OCCN1CCCC1 | 33.2% | 42.5% | 66.4% | 85.3% | 30.2% | -7.71% | 8.71% | 37.3% | 11.7% | 11.9% | 73.8% | 47.6% |  | 17.8% | 32.4%
12 | COc1ccc(S(=O)(=O)c2cc(OC)ccc2S(=O)(=O)c2ccc([C@H](C)NS(C)(=O)=O)cc2)cc1 | 2.71% | -1.73% | 18.8% | 6.79% | 1.18% | 96.5% |  | 22.6% | 0.39% | 25.6% | -3.37% | 0.09% | -6.16% | -1.6% | 58.7%
13 | CC(C)NCC(O)COc1cccc2ccccc12 (stereo not drawn) | 16.1% | 9.59% | 38.4% | -2.95% | 17.7% | 74.2% | 77.5% | 14.6% | 4.93% |  | -3.37% |  | 3.24% |  | 13.2%
14 | Nc1nc2c(c(N3CCNCC3)n1)CCC1=C2[C@@H]2CCCC[C@@H]2O1 |  |  |  | -4.34% | 25.9% | 17.3% | 49.9% | -7.78% | -6.45% | -6.86% | -0.51% | 31.9% | 34.5% |  | 8.96%

Reference: ChEMBL document CHEMBL5442219
